How the values were obtained:
Experiment in all cases: relative viability (nuclei count vs DMSO), 5 days (fraction); higher = more cells survive
[1] = compound: C[C@@]1(C(=O)Nc2ccc(F)nc2)CCCN1c1nc(Nc2cc(C3CC3)n[nH]2)c2cccn2n1 + CS(=O)(=O)N1CCN(Cc2cc3nc(-c4cccc5[nH]ncc45)nc(N4CCOCC4)c3s2)CC1 [Pictilisib] (partner 1 µM)
Method in brief: (§1)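 Lung cancer cell lines in 1536-well plates got either a single drug or a fixed anchor-drug dose together with five library-drug doses (not always all listed) in √10 steps, by pin tool, on the day after seeding. Nuclei were counted after 5 days, and relative viability is the treated-to-vehicle ratio of nuclei counts. Values are medians of duplicate plates.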

[2] = compound: C[C@@]1(C(=O)Nc2ccc(F)nc2)CCCN1c1nc(Nc2cc(C3CC3)n[nH]2)c2cccn2n1 + CC(=O)c1c(C)c2cnc(Nc3ccc(N4CCNCC4)cn3)nc2n(C2CCCC2)c1=O [Palbociclib] (partner 0.5 µM)
Method in brief: as §1

[3] = compound: C[C@@]1(C(=O)Nc2ccc(F)nc2)CCCN1c1nc(Nc2cc(C3CC3)n[nH]2)c2cccn2n1 + O=C(c1cc(Cc2n[nH]c(=O)c3ccccc23)ccc1F)N1CCN(C(=O)C2CC2)CC1 [Olaparib] (partner 8 µM)
Method in brief: as §1

Motesanib + Palbociclib = compound: CC1(C)CNc2cc(NC(=O)c3cccnc3NCc3ccncc3)ccc21 [Motesanib] + CC(=O)c1c(C)c2cnc(Nc3ccc(N4CCNCC4)cn3)nc2n(C2CCCC2)c1=O [Palbociclib] (partner 0.5 µM)
Method in brief: as §1

| Cell Line | relative viability ([1]; first compound 0.04 µM) | relative viability ([1]; first compound 0.1265 µM) | relative viability ([1]; first compound 0.4 µM) | relative viability ([1]; first compound 1.265 µM) | relative viability ([2]; first compound 0.04 µM) | relative viability ([2]; first compound 0.1265 µM) | relative viability ([2]; first compound 0.4 µM) | relative viability ([2]; first compound 1.265 µM) | relative viability ([3]; first compound 0.04 µM) | relative viability ([3]; first compound 0.1265 µM) | relative viability ([3]; first compound 0.4 µM) | relative viability ([3]; first compound 1.265 µM) | relative viability (Motesanib + Palbociclib; first compound 0.01 µM) | relative viability (Motesanib + Palbociclib; first compound 0.03162 µM) | relative viability (Motesanib + Palbociclib; first compound 0.1 µM) | relative viability (Motesanib + Palbociclib; first compound 0.3162 µM) | relative viability (Motesanib + Palbociclib; first compound 1 µM) |
| --- | --- | --- | --- | --- | --- | --- | --- | --- | --- | --- | --- | --- | --- | --- | --- | --- | --- |
| EPLC-272H | 0.251 | 0.18 | 0.168 | 0.174 | 0.253 | 0.308 | 0.285 | 0.261 | 0.792 | 0.513 | 0.489 | 0.571 | 0.284 | 0.3 | 0.344 | 0.36 | 0.381 |
| H3255 | 0.49 | 0.423 | 0.415 | 0.371 | 0.314 | 0.326 | 0.299 | 0.317 | 0.638 | 0.643 | 0.523 | 0.548 | 0.308 | 0.326 | 0.322 | 0.348 | 0.363 |
| HARA | 0.366 | 0.208 | 0.215 | 0.294 | 0.238 | 0.189 | 0.159 | 0.218 | 0.81 | 0.74 | 0.59 | 0.656 | 0.281 | 0.211 | 0.282 | 0.253 | 0.315 |
| HCC-15 | 0.715 | 0.573 | 0.747 | 0.745 | 0.667 | 0.579 | 0.529 | 0.598 | 0.663 | 0.614 | 0.611 | 0.635 | 0.777 | 0.668 | 0.695 | 0.768 | 0.702 |
| HCC-44 | 0.532 | 0.386 | 0.841 | 0.328 | 0.846 | 0.904 | 0.803 | 0.885 | 0.94 | 0.879 | 0.867 | 0.911 | 0.945 | 0.944 | 1.02 | 0.972 | 0.942 |
| HCC-78 | 0.204 | 0.148 | 0.172 | 0.189 | 0.446 | 0.377 | 0.464 | 0.363 | 0.661 | 1.12 | 0.375 | 0.427 | 0.442 | 0.467 | 0.478 | 0.511 | 0.56 |
| HCC-366 | 0.105 | 0.104 | 0.101 | 0.12 | 0.338 | 0.313 | 0.28 | 0.243 | 0.364 | 0.256 | 0.254 | 0.215 | 0.354 | 0.36 | 0.367 | 0.452 | 0.435 |
| HCC-827 | 0.889 | 1.07 | 1.1 | 1 | 0.418 | 0.466 | 0.48 | 0.459 | 0.663 | 0.769 | 0.55 | 0.716 | 0.569 | 0.437 | 0.459 | 0.546 | 0.439 |
| HOP-62 | 0.882 | 0.632 | 0.525 | 0.818 | 0.51 | 0.42 | 0.359 | 0.475 | 0.39 | 0.172 | 0.386 | 0.404 | 0.451 | 0.43 | 0.499 | 0.51 | 0.494 |

From the supplement of paper PMC10307832
